Test results published in US20060040945A1, “Annellated pyrrole compounds as proton pump inhibitors for treating ulcer” (MERCKLE GMBH, priority 2002, published 2006).
Read-outs that look alike come from different tables or passages of the source.

Experiments:
[1] = molecular target: gastric H,K-ATPase; conditions: cited from earlier work; for IC50: literature (refs 6, 7), read-out: published IC50, H,K-ATPase
[2] = molecular target: T1, gastric H,K-ATPase (Sus scrofa, UniProt P19156); test: K+-stimulated, SCH28080-sensitive H,K-ATPase activity of pig gastric microsomes (32Pi release from ATP); format: biochemical; conditions: for IC50: pig gastric microsomes, pH 7.0, 20 minutes at 37° C., read-out: half-maximal inhibitory concentration (IC50), H,K-ATPase activity; for inhibitory effect on microsomal H,K-ATPase activity: concentrations up to 10^−4 M; for effect on H,K-ATPase activity: non-physiological concentrations greater than 10^−7 M; for inhibitory activity against H,K-ATPase: physiological concentrations (10^−9-10^−8 M)
T1 construct: Reaction mixtures for assay of K^+-stimulated ATPase activity in pig gastric microsomal membranes contained 5 μg membrane protein; from tissue; host or cells: pig gastric fundic mucosa, G1 microsomal fraction
Protocol: Strategy. Microsomal gastric H,K-ATPase was prepared from pig gastric mucosal homogenates by differential centrifugation. Briefly, pig stomachs obtained at a slaughter-house within 1 hour post mortem were washed with ice-cold 0,25 M sucrose and the fundus was dissected from the cardiac and antral regions. All subsequent prodedures were at 4° C. The mucosa was flooded with saturated NaCl, and the surface mucus and superficial cells wiped off with paper towels. The mucosa was scraped from the underlying connective tissue, suspended (10% w/v) in isolation buffer (0,25 M sucrose, 20 mM HEPES, pH 7,4, 1 mM EDTA, 1 mM phenylmethylsulfonyl fluoride), and disrupted by two 10 second bursts at maximum power in a Tissumizer (Tekmar, Cincinnati, Ohio). The homogenate was centrifuged at 20,000 g for 30 minutes, and the supernatant was centrifuged at 10^5 g for 1 hour. The resulting microsomal pellet was resuspended in isolation buffer, and applied to a discontinuous gradient of 7% w/v Ficoll and 34% sucrose (both in isolation buffer). After 3 hours at 32,500 rpm (Sorvall AH 629 rotor), the microsomal band (G1) recovered from the 7% Ficoll interface was resuspended to 10 mg/ml in 15 mM PIPES-Tris, pH 6,8, diluted 1:1 with cold 60% sucrose, lyophilized in 0,5 ml aliquots, and stored at −70° C. Gl microsomes were about 0,1 microns in diameter, were enriched in H.K.-ATPase activity, and more than 80% of their protein content banded at 94 kDa by SDS-PAGE. ATP hydrolytic activity of microsomes was quantitated in terms of inorganic phosphate release from substrate ATP and measured in graded concentrations (ranging from 10^−9M to 10^−4M) of ML 3000, and a wide range of other compounds. Reaction mixtures for assay of K^+-stimulated ATPase activity in pig gastric microsomal membranes contained 5 μg membrane protein, 100 mM Tris-acetate, pH 7.0, 1 mM MgCl2, 1 mM NaNa, 0,1 mM EGTA, 5 μM ATP (γ-^32P-ATP, 10 Ci/mmol, NEN, Boston, Mass.), 0-10 mM KCl, and 0-100 μM SCH 28080. After 20 minutes incubation at 37° C., reactions were stopped by addition of 10% w/v activated charcoal (Sigma), 5,5% w/v trichloroacetic acid, vortexed vigorously, and centrifuged at 14,000 g for 10 minutes at 4° C. Inorganic phosphate (γ-^32Pi) content of the supernatant was measured by scintillation counting. […] Graphs with standard error bars present inter-assay data variance in three independent assays in each of which ATPase activities in three separate but identical reaction conditions were measured. Graphs without standard error bars represent the mean ATPase activities in three separate but identical reaction conditions in one of at least three independent assays; typical data are shown in these cases.
The wide range of published PPI IC50 values for microsomal H,K-ATPase reflects the mechanistic necessity for compound acidification to allow formation of a thiol-reactive […] intermediate which then irreversibly derivatizes H,K-ATPase a subunit cysteine residues leading to enzyme inhibition. […] Microsomal vesicle preparations vary widely in their ion-tightness, which affects the extent to which internal pH can be lowered by H,K-ATPase turnover, and therefore the extent to which omeprazole diffusing into the vesicle can be acidified and activated. Alternatively, prior in vitro acidification of omeprazole ensures induction of its inhibitory properties, and is essential in assays carried out using ion-permeable microsomal H,K-ATPase preparations. For this reason, the omeprazole inhibitory data shown in FIG. 2 were derived using omeprazole acidified to pH 6.1 and incubated with the enzyme for 30 min at the same pH (8).
Given that PPIs are irreversible inhibitors of H,K-ATPase activity, covalently binding to the catalytic α-subunit, it was determined whether ML 3000 inhibition of H,K-ATPase was reversible or irreversible. […]

[3] = tested on: rabbit gastric parietal cells; test: [14C]-aminopyrine (acid) accumulation in isolated gastric parietal cells; format: cell-based; conditions: for effect on acid accumulation by isolated rabbit parietal cells: up to concentrations of 10^−4 M; for IC50: Oryctolagus cuniculus
Protocol: Strategy. Gastric parietal cells were isolated from New Zealand White Rabbits by pronase/collagenase digestion of fundic mucosa followed by enrichment of cells on discontinuous Nycodenz gradients in a manner known per se. Aminopyrine accumulation into parietal cells was assessed in 96 well filter plates with Durapore membranes. […] All determinations were performed in quadruplicate. Basal aminopyrine accumulation was determined as aminopyrine accumulation into […] (a reflection of non-specific isotope trapping).

[4] = tested on: human gastric adenocarcinoma (AGS) cells; test: IL-8 secretion by AGS cells into culture medium (ELISA); format: cell-based; conditions: 6 hr
[5] = molecular target: T1, gastric H,K-ATPase; test: K+-stimulated, SCH28080-sensitive H,K-ATPase activity of pig gastric microsomes (32Pi release from ATP); format: biochemical; conditions: concentrations up to 10^−3 M
[6] = Plasma ML3000 level after immediate release dosage forms; format: in vivo; conditions: immediate release dosage form
[7] = AGS cells without IL-1β stimulation, read-out: IC50, baseline IL-8 secretion

T1 sequence (P19156 2-1034 limits assumed): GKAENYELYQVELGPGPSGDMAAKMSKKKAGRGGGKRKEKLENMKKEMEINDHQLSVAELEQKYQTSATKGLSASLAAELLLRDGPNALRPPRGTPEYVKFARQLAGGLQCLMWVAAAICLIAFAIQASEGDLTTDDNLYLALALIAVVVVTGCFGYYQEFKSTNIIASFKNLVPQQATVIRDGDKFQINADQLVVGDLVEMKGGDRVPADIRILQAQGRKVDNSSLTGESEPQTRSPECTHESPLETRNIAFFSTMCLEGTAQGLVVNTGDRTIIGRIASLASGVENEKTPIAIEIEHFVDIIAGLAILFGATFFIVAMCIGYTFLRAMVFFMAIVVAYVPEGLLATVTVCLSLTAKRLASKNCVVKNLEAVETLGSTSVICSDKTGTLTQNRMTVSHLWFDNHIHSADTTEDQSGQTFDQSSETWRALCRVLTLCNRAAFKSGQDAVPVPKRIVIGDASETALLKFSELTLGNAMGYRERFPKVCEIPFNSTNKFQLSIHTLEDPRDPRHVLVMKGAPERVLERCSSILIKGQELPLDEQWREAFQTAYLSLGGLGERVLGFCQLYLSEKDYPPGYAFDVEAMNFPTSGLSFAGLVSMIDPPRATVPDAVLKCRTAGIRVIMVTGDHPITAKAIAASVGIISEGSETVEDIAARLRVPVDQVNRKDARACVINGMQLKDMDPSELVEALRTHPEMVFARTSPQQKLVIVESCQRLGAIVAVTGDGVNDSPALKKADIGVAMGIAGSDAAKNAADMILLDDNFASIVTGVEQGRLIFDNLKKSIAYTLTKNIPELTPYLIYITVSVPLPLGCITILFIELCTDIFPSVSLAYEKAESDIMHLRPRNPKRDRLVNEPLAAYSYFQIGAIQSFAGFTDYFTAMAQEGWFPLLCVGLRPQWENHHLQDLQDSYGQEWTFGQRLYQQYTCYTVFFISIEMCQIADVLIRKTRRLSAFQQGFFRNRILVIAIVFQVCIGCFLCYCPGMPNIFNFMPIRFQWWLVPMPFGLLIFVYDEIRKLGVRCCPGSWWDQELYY
T1 sequence (P18434 whole entry partner): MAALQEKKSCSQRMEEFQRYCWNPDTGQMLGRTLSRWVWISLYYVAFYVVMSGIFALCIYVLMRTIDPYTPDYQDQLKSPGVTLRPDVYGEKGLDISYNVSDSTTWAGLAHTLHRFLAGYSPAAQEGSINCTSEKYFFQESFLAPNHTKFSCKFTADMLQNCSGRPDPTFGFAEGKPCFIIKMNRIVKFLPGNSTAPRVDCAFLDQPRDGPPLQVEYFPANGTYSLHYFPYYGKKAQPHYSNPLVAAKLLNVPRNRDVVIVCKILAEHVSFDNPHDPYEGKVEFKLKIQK

In the case of `COC(=O)c1cc2nc([S+]([O-])Cc3ncccc3C)[nH]c2cc1C` (centres unmarked) [picoprazole], the IC50 [1] is listed as 2 µM.

With `CCCCC/C=C\C/C=C\C/C=C\C/C=C\CCCC(=O)O` [Arachidonic acid] the IC50 [2] was 30 µM.

In the case of `CS(=O)(=O)Nc1ccc([N+](=O)[O-])cc1OC1CCCCC1` [NS 398], the “inhibitory effect on microsomal H,K-ATPase activity” value (from here on “inhibitory effect”) [2] is reported as “without inhibitory effects” and the “effect on acid accumulation by isolated rabbit parietal cells” value [3] is reported as “no effect”.

`COC1(c2cc(F)cc(OCc3ccc4c(ccc(=O)n4C)c3)c2)CCOCC1` [ZD-2138] gave an inhibition at 10 µM ([2]; at 10^−5 M) of about 20% and an IC50 [4, 7] of about 0.4 µM.

In the case of `CCCCC/C=C\C\C=C/C=C/C=C/[C@@H](SC[C@H](N)C(=O)NCC(=O)O)[C@@H](O)CCCC(=O)O` [LTD4, leukotriene D4], the “effect on H,K-ATPase activity” value [2] is reported as “significant attentuation of H,K-ATPase activity” and the “inhibitory activity against H,K-ATPase” value [2] is reported as “neither leukotriene showed any inhibitory activity”.

Work on `CCCCC[C@H](O)/C=C/[C@H]1[C@H](O)CC(=O)[C@@H]1C/C=C\CCCC(=O)O` [prostaglandin E2] yielded an IC50 [2] of 45 µM.

For `CC(=O)Oc1ccccc1C(=O)O` [acetyl salicylic acid], the “inhibitory effect” value [5] was “without inhibitory effects” and the “effect on acid accumulation by isolated rabbit parietal cells” value [3] was “no effect”.

With `CC1(C)Cc2c(-c3ccccc3)c(-c3ccc(Cl)cc3)c(CC(=O)O)n2C1` [ML 3000, [6-(4-chlorophenyl)-2,2-dimethyl-7-phenyl-2,3-dihydro-1H-pyrrolizine-5-yl]-acetic acid] the “reversibility of H,K-ATPase inhibition on dilution” value ([2]; diluted from 100 μM to 3.3 μM) was “restored H,K-ATPase activity”, the “effect of acidification on H,K-ATPase inhibitory profile” value ([2]; half-maximal inhibitory concentration titrated to different pHs) was “no significant effect” and the IC50 [2] was 15 µM. The IC50 [4, 7] was 0.75 µM, the IC50 ([4]; AGS cells, IL-1β (20 ng/ml), read-out: IC50, IL-1β-stimulated IL-8 secretion) was 30 µM and the “plasma ML3000 concentration maintained for 8 hours” value ([6]; dose 2.5 mg/kg) was “above 100 ng/mL”. The “plasma ML3000 concentration maintained for 8 hours” value ([6]; dose 5 mg/kg) was over 200 ng/mL, the IC50 ([3]; 100 μM histamine, read-out: IC50, histamine-stimulated acid accumulation) was 40 µM and the IC50 ([3]; read-out: IC50, forskolin-stimulated acid accumulation) was about 45 µM.

With `COc1ccc2cc([C@H](C)C(=O)O)ccc2c1` [naproxen] the “inhibitory effect” value [2] was “without inhibitory effects”.

For `COc1ccc2c(c1)c(CC(=O)O)c(C)n2C(=O)c1ccc(Cl)cc1` [indomethacin], the “inhibitory effect” value [2] is given as “without inhibitory effects” and the Ki ([1]; previously reported (ref 10)) is given as 670 µM.

In the case of `Cc1c(OCC(F)(F)F)ccnc1C[S+]([O-])c1nc2ccccc2[nH]1` (centres unmarked) [lansoprazole], the IC50 [1] is listed as 2.1 µM.

For `CCCCC/C=C\C[C@@H](O)/C=C/C=C/C=C\[C@@H](O)CCCC(=O)O` [LTB4, leukotriene B4], the “effect on H,K-ATPase activity” value [2] was “significant attentuation of H,K-ATPase activity” and the “inhibitory activity against H,K-ATPase” value [2] was “neither leukotriene showed any inhibitory activity”.
